Laboratory results published in patent US8309546B2, “Morpholinopurine derivatives” (Daiichi Sankyo Company, Limited, priority 2008, dated 2012).

Legend:
PI3Kα = PI3Kα (Homo sapiens, UniProt P42336); assay: PI3K kinase activity inhibition assay; format: biochemical; conditions: Kinase-Glo Plus ATP detection, read-out: IC50 against PI3K
Experimental: PI3Kα kinase activity was determined in the presence and absence of a test compound. The test compound was dissolved in DMSO and diluted serially with an ATP solution (30 μm ATP, 50 mM HEPES, pH 7.4, 50 mM NaCl, 0.05% CHAPS, 10 mM MgCl2, and 5 mM dithiothreitol [DTT]). First, 7 μl each of the serially diluted test compound solutions was added to each well of a black 384-well plate. Subsequently, 7 μl of a phosphatidylinositol 4,5-bisphosphate (PIP2) solution (45 μm PIP2, 50 mM HEPES, pH 7.4, 50 mM NaCl, 0.05% CHAPS, 10 mM MgCl2, and 5 mM DTT) was added to each well of the 384-well plate. Finally, 7 μl of a solution containing PI3Kα (50 nM PI3Kα, 50 mM HEPES, pH 7.4, 50 mM NaCl, 0.05% CHAPS, 10 mM MgCl2, and 5 mM DTT) was added to each well of the 384-well plate to initiate a reaction. The mixture was reacted at room temperature for 2 hours and then 21 μl of the Kinase-Glo Plusreagent (Promega) was, added to each well of the 384-well plate to terminate the reaction. After the termination of the reaction, the solution was left standing for 15 minutes and then luminescence was measured with ARVO (PerkinElmer Co., Ltd.) to detect ATP remaining in the reaction solution.
The amount of ATP consumed in the reaction was obtained for each well and used as an indicator of PI3Kαkinase activity. The PI3Kα kinase activity in wells not containing the test compound was calculated by the following formula (1). Furthermore, the PI3Kα kinase activity in wells containing the test compound was calculated by the following formula (2). The PI3Kα inhibitory activity (%) of the test compound was calculated by the following formula (3). PI3Kα kinase activity in wells not containing the test compound=B−C (1) PI3Kα kinase activity in wells containing the test compound=B−P (2) PI3Kα inhibitory activity (%) of test compound=100−100×[(B−P)/(B−C)] (3) B: Measured value in wells not containing PI3Kα or the test compound C: Measured value in wells containing PI3Kα and not containing the test compound P: Measured value in wells containing PI3Kα and the test compound
Furthermore, an optimal curve was calculated with Graph Pad Prism 4 using concentrations of the serially diluted test compound solutions and PI3Kα inhibitory activity (%) at each concentration to obtain the concentration showing 50% inhibition as the IC50 value of PI3Kα inhibitory activity.

[1] = molecular target: T1, human mTOR (His-tagged mTOR (1362C)) (Homo sapiens, UniProt P42345); assay: mTOR kinase activity inhibition assay; format: biochemical; conditions: HTRF, read-out: IC50 against mTOR
T1 construct: the 1362 to 2549 amino acid portion on the C terminus side of human mTOR; His tag (N); made in house
T1 sequence (P42345 1362-2549): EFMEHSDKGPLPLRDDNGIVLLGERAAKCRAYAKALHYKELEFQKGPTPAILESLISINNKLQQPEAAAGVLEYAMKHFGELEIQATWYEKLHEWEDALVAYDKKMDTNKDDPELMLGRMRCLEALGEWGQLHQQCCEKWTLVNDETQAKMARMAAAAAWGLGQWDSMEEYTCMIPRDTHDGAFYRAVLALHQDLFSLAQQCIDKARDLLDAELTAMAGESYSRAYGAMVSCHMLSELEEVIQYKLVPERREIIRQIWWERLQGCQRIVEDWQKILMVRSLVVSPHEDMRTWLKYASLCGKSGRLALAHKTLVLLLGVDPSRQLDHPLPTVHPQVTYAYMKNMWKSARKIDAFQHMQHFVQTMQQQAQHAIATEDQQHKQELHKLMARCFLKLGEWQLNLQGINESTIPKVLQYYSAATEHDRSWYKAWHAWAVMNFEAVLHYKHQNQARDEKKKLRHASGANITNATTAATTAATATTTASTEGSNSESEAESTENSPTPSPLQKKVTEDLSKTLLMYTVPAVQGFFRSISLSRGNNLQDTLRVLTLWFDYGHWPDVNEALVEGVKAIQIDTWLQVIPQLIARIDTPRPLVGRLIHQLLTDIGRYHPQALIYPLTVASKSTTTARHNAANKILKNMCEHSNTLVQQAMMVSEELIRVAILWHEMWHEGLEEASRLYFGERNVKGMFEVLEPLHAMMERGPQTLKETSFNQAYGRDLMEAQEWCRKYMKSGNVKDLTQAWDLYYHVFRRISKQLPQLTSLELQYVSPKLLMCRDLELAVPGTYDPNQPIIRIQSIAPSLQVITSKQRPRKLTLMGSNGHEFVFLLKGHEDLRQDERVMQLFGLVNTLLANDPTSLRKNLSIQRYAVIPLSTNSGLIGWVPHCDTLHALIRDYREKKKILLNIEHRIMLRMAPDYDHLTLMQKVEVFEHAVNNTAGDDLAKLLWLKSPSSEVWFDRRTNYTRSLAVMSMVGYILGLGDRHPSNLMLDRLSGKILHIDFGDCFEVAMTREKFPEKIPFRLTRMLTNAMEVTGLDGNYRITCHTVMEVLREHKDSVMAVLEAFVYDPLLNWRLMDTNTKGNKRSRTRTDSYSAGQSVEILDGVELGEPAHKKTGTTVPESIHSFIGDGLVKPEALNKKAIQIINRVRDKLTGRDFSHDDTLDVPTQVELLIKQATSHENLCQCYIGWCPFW
Experimental: The mTOR kinase activity was determined in the presence and absence of a test compound. A substrate peptide is phosphorylated by mTOR kinase activity. A complex of streptavidin-XL665 and anti-phosphorylated S6K (Thr389) antibody-anti-mouse IgG-cryptate binds to this phosphorylated peptide. At this time, irradiation of excitation light induces transfer of fluorescence resonance energy from the excited cryptate to XL665, emitting fluorescence at 665 nm. Utilizing this principle, mTOR kinase activity was detected. When the mTOR inhibitor is present, phosphorylation of a substrate peptide is inhibited, and the biding of the above-mentioned complex to the substrate peptide is inhibited.
A His tag was introduced into the N terminus end of the 1362 to 2549 amino acid portion on the C terminus side of human mTOR, and a cell line was prepared, so that His-tagged mTOR should be constantly expressed in a HEK293 cell. A cell lysate was prepared from this HEK293 cell which constantly expressed His-tagged mTOR (1362C), and a crude product of His-tagged mTOR (1362C) was obtained by a usual method utilizing His tag.
Subsequently, an mTOR enzyme solution was prepared which contained the above-mentioned His-tagged mTOR (1362C) enzyme and 8 μg/ml biotinylated peptide (Biotin-Ahx-[…]-amide [Sigma]), as well as 50 mM HEPES (pH 7.5), 20 mM MnCl2, 1 mg/ml BSA, a suitable amount of protease inhibitor cocktail (Complete EDTA free, Roche Ltd.), 100 ng/ml calyculin A, and 4 μg/ml cantharidin as other components.
The test compound was dissolved in dimethyl sulfoxide (DMSO) and serially diluted with 20 μm ATP solution (50 mM HEPES (pH 7.5), 20 μM ATP) to obtain concentrations required for the assay. 5 μl of this compound solution was added to each well of a 384-well small volume white plate manufactured by Greiner Bio-One Co., Ltd.
5 μl of the mTOR enzyme solution was added to the above-mentioned well containing the test compound and the resulting mixture was left standing for 3 hours room temperature to proceed an enzymatic reaction.
The same procedure was performed using a solution obtained by dissolving DMSO in 20 μM ATP solution as a positive control and a solution obtained by dissolving DMSO in 50 mM HEPES buffer (pH 7.5) as a negative control.
After the enzymatic reaction, 5 μl each of an europium solution (a solution obtained by dissolving anti-mouse IgG-cryptate [SCETI Medical Labo K.K.] and anti-phosphorylation S6K [Thr389] antibody [Cell Signaling Technology Inc.] in 50 mM HEPES [pH 7.5], 100 mM EDTA, and 1.5 mg/ml BSA) and an XL665 solution (a solution obtained by dissolving Streptavidin-XL 665 [SCETI Medical Labo K.K.] in 50 mM HEPES [pH 7.5], 100 mM EDTA, 0.8 M KF, and 1.5 mg/ml BSA) were added in this order and mixed and the resulting mixture was left standing overnight at 4° C. On the following day, the mixture was returned to room temperature and then irradiated with 337-nm excitation light and fluorescence at 620 and 665 nm was measured with RUBYstar (BMG LABTECH JAPAN Ltd.).
mTOR inhibitory activity (%) was calculated using the ratio calculated from the measured values as an indicator of enzyme activity. Here, the ratio was calculated by the following formula (1). Ratio=10,000×fluorescence at 665 nm/fluorescence at 620 nm (1)
mTOR enzyme inhibitory activity (%) was calculated by the following formula (2). mTOR enzyme inhibitory activity (%)=100×[(P−S)/(P−N)] (2) P: Ratio in positive control well N: Ratio in negative control well S: Ratio in well containing the test compound
Furthermore, an optimal curve was created using the concentrations of the serially diluted test compound solutions and mTOR enzyme inhibitory activity (%) at each concentration to obtain the concentration showing 50% inhibition as the IC50 value of mTOR enzyme inhibitory activity.

[2] = test system: human endometrial cancer cell strain AN3CA; assay: Cell growth inhibition test (MTT), AN3CA; format: cell-based; conditions: AN3-CA, 72 h, 3 days culture, read-out: concentration exhibiting anti-cell effect (GI50)
Experimental: (§1) After a cultured cancer cell strain was treated with a test compound for a predetermined period, a cell growth inhibition test was performed by measuring the living cell count by the 3-(4,5-dimethylthiazol-2-yl)-2,5-diphenyltetrazoliumbromide (MTT) method.
(§2) Human endometrial cancer cell strain AN3CA, human ovary cancer cell strain IGROV1, and human colon cancer cell strain HT29 were seeded in a 96-well plate at 5000, 1000, and 5000 cells, respectively, per well. On the following day of seeding, a test compound having a predetermined concentration was added and the culture was continued at 37° C. in 5% CO2 for 3 days. On the final day of culture, an MTT reaction solution was added and the resulting mixture was reacted for 4 hours to form formazan by dehydrogenases contained in living cells. Subsequently, the culture broth was removed, DMSO was added to solubilize formazan, and the amount of produced formazan was determined by measuring absorbance at 540 nm using a microplate reader.
(§3) Since correlations of the amount of produced formazan and the living cell count had been confirmed, the cell growth rate was calculated by the following formula. Cell growth rate (T/C %) after addition of test compound=100×[(B−C)/(A−C)] A: Absorbance of well not containing test compound (final culture day) B: Absorbance of well containing test compound (final culture day) C: Absorbance of well immediately before addition of test compound (following day of cell seeding)
(§4) Furthermore, the cell growth rate at each concentration of serially diluted test compound solutions was obtained, and the concentration of the test compound resulting in a 50% growth rate was obtained as the GI50 value from two concentrations including 50% therebetween and the growth rates were selected.

[3] = test system: human ovary cancer cell strain IGROV1; assay: Cell growth inhibition test (MTT), IGROV1; format: cell-based; conditions: IGROV-1, 72 h, IGROV1, 3 days culture, read-out: concentration exhibiting anti-cell effect (GI50)
Experimental: as §1, §2, §3, §4

[4] = test system: human colon cancer cell strain HT29; assay: Cell growth inhibition test (MTT), HT29; format: cell-based; conditions: HT-29, 72 h, HT29, 3 days culture, read-out: concentration exhibiting anti-cell effect (GI50)
Experimental: as §1, §2, §3, §4

Sequence of PI3Kα (P42336 whole entry, species assumed): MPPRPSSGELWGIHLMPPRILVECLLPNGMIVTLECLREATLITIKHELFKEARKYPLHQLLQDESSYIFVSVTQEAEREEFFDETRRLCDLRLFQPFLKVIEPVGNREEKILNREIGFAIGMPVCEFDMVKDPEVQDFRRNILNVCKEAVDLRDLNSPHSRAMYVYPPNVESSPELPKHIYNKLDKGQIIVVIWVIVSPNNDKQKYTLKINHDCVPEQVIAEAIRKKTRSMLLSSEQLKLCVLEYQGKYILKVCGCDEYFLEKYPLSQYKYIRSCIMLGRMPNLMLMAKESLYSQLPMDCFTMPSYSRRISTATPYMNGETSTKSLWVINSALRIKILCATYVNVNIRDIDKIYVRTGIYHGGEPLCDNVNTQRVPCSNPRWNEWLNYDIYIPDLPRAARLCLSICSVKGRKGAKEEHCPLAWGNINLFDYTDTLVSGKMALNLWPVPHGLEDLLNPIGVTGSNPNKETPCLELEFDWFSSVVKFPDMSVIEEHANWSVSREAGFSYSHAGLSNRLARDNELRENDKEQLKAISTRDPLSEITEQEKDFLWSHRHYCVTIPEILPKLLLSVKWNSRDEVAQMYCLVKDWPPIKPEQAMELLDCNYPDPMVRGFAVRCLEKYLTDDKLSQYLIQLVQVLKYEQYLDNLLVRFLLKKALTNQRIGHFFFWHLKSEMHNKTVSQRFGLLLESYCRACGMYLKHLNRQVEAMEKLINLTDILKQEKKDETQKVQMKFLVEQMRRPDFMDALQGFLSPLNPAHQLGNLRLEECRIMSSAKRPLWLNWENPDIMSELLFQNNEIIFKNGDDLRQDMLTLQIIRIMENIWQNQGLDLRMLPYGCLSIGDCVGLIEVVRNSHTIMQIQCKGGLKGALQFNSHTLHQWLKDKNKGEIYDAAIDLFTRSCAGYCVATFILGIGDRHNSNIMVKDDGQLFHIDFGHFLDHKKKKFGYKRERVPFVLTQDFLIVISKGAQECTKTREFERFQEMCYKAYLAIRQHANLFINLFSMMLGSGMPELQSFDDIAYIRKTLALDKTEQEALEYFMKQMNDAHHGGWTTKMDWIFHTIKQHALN
Sequence of PI3Kα (P27986 whole entry partner, species assumed): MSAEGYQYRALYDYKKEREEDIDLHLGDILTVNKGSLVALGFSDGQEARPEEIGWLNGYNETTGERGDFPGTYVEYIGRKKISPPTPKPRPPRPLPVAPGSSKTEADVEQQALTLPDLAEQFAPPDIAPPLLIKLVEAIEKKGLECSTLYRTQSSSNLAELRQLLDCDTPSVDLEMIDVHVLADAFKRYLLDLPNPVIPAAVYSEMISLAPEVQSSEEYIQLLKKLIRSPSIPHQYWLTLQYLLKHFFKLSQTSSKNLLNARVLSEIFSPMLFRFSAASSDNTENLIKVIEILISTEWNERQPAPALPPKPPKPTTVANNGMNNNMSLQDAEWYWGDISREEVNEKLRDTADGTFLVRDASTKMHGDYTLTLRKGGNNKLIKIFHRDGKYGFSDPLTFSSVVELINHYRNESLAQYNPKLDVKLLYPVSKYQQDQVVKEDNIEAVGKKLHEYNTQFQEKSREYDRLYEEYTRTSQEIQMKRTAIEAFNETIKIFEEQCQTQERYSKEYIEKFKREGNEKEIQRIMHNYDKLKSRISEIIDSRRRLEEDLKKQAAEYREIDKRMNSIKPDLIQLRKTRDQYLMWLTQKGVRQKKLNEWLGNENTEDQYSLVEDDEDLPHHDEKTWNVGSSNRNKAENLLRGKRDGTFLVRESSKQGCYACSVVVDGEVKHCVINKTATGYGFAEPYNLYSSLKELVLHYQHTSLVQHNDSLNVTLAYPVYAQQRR

Row | Structure (SMILES) | IC50 (PI3Kα) | IC50 [1] | GI50 [2] | GI50 [3] | GI50 [4]
1 | CNc1ncc(-c2nc(N3CCOCC3)c3nc(N4C[C@@H](C)N[C@@H](C)C4)n(CC4CCOC4)c3n2)cn1 (stereo partly drawn) [Example 18, 5-[8-(cis-3,5-Dimethylpiperazin-1-yl)-6-morpholin-4-yl-9-(tetrahydrofuran-3-ylmethyl)-9H-purin-2-yl]-N-methylpyrimidin-2-amine] | 50 to 100 nM | 100 to 500 nM | ≤ 5000 nM | ≤ 5000 nM | ≤ 5000 nM
2 | Cc1nc(N)ncc1-c1nc(N2CCOCC2)c2nc(NCCN(C)C)n(CC3CC3)c2n1 [Example 21, N′-[2-(2-Amino-4-methylpyrimidin-5-yl)-9-(cyclopropylmethyl)-6-morpholin-4-yl-9H-purin-8-yl]-N,N-dimethylethane-1,2-diamine] | 10 to 20 nM | ≥ 500 nM | ≤ 5000 nM | ≤ 5000 nM | ≤ 5000 nM
3 | Cc1nc(N)ncc1-c1nc(N2CCOCC2)c2nc(NCCN3CCOCC3)n(CC3CC3)c2n1 [Example 22, 2-(2-Amino-4-methylpyrimidin-5-yl)-9-(cyclopropylmethyl)-6-morpholin-4-yl-N-(2-morpholin-4-ylethyl)-9H-purin-8-amine] | 10 to 20 nM | ≥ 500 nM | ≤ 5000 nM | ≤ 5000 nM | ≤ 5000 nM
4 | C[C@@H]1CN(c2nc3c(N4CCOCC4)nc(-c4cnc(N)nc4)nc3n2[C@H]2CCN(S(C)(=O)=O)C2)C[C@H](C)N1 [Example 26, 5-{8-(cis-3,5-Dimethylpiperazin-1-yl)-9-[(3S)-1-(methylsulfonyl)pyrrolidin-3-yl]-6-morpholin-4-yl-9H-purin-2-yl}pyrimidin-2-amine] | 20 to 50 nM | 100 to 500 nM | ≤ 5000 nM | ≤ 5000 nM | ≤ 5000 nM

Other lines, results leading:

Row | IC50 (PI3Kα) | IC50 [1] | GI50 [2] | GI50 [3] | GI50 [4] | Structure (SMILES)
5 | 20 to 50 nM | 100 to 500 nM | ≤ 5000 nM | ≤ 5000 nM | ≤ 5000 nM | C[C@@H]1CN(c2nc3c(N4CCOCC4)nc(-c4cnc(N)nc4)nc3n2CC2CCOC2)C[C@H](C)N1 (stereo partly drawn) [Example 17, 5-[8-(cis-3,5-Dimethylpiperazin-1-yl)-6-morpholin-4-yl-9-(tetrahydrofuran-3-ylmethyl)-9H-purin-2-yl]pyrimidin-2-amine]
6 | 10 to 20 nM | 30 to 100 nM | ≤ 5000 nM | ≤ 5000 nM | ≤ 5000 nM | Nc1ncc(-c2nc(N3CCOCC3)c3nc(N4CCNCC4)n(CC4CC4)c3n2)cn1 [Example 19, 5-[9-(Cyclopropylmethyl)-6-morpholin-4-yl-8-piperazin-1-yl-9H-purin-2-yl]pyrimidin-2-amine]
7 | 10 to 20 nM | 30 to 100 nM | ≤ 5000 nM | ≤ 5000 nM | ≤ 5000 nM | Nc1ncc(-c2nc(N3CCOCC3)c3nc(N4CCOCC4)n(CC4CC4)c3n2)cn1 [Example 20, 5-[9-(Cyclopropylmethyl)-6,8-dimorpholin-4-yl-9H-purin-2-yl]pyrimidin-2-amine]
8 | 20 to 50 nM | 30 to 100 nM | ≤ 5000 nM | ≤ 5000 nM | ≤ 5000 nM | Nc1ncc(-c2nc(N3CCOCC3)c3nc(N4CCOCC4)n(CC4CCOC4)c3n2)cn1 (centres unmarked) [Example 23, 5-[6,8-Dimorpholin-4-yl-9-(tetrahydrofuran-3-ylmethyl)-9H-purin-2-yl]pyrimidin-2-amine]
9 | 50 to 100 nM | 100 to 500 nM | ≤ 5000 nM | ≤ 5000 nM | ≤ 5000 nM | CNc1ncc(-c2nc(N3CCOCC3)c3nc(N4CCOCC4)n(CC4CCOC4)c3n2)cn1 (centres unmarked) [Example 24, 5-[6,8-Dimorpholin-4-yl-9-(tetrahydrofuran-3-ylmethyl)-9H-purin-2-yl]-N-methylpyrimidin-2-amine]
10 | 20 to 50 nM | 30 to 100 nM | ≤ 5000 nM | ≤ 5000 nM | ≤ 5000 nM | CNc1ncc(-c2nc(N3CCOCC3)c3nc(N4CCN(S(C)(=O)=O)CC4)n(CC4CCOC4)c3n2)cn1 (centres unmarked) [Example 25, N-Methyl-5-{8-[4-(methylsulfonyl)piperazin-1-yl]-6-morpholin-4-yl-9-(tetrahydrofuran-3-ylmethyl)-9H-purin-2-yl}pyrimidin-2-amine]
